Test results as given in patent publication US20130252935A1, “Monobactams” (PFIZER INC., priority 2010, published 2013).
Converted amounts (≈) assume the structure as drawn.

Assays:
Type in all cases: cell-based
[1] = system: Pseudomonas aeruginosa UC-12120; experiment: minimum inhibitory concentration (MIC) testing according to CLSI guidelines, Pseudomonas aeruginosa; conditions: UC-12120, wild-type, labeled as 1091-05, overnight incubation, lower of duplicate values; for MIC: Pseudomonas aeruginosa, UC12120, read-out: AB-MBT: Pseudomonas aeruginosa 1091-05: MIC (MstRcn)
Method: (§1) In order to assess the compounds biological activity, the in vitro anti-bacterial activity of selected compounds described in the Examples 1-69 was evaluated by minimum inhibitory concentration (MIC) testing according to Clinical and Laboratory Standards Institute (CLSI, formerly NCCLS) guidelines. See: Clinical and Laboratory Standards Institute. Methods for Dilution Antimicrobial Susceptibility Tests for Bacteria that Grow Aerobically; Approved Standard-Eighth Edition. CLSI document M7-A8 [ISBN 1-56238-689-1]. Clinical and Laboratory Standards Institute, 940 West Valley Road, Suite 1400, Wayne, Pa. 19087-1898 USA, 2006; also Clinical and Laboratory Standards Institute. Performance Standards for Antimicrobial Susceptibility Testing; Twentieth Informational Supplement. CLSI document M100-S20 [ISBN1-56238-716-2]. Clinical and Laboratory Standards Institute.
(§2) The MIC determination is a standard laboratory method for evaluating the antibacterial activity of a compound. The MIC represents the lowest drug concentration that inhibits visible growth of bacteria following overnight incubation. […] Typically, the drug concentration range is broken down into 2-fold increments (e.g. 0.06 μg/mL, 0.12 μg/mL. 0.25 μg/mL, 0.50 μg/mL, 1.0 μg/mL, etc.) and the various drug concentrations are all individually incubated overnight with approximately the same number of bacteria. The MIC is then determined by visually inspecting the drug effect at each concentration, and identifying the lowest drug concentration that has inhibited bacterial growth as compared to the drug free control. Typically, bacteria continue to grow at drug concentrations lower than the MIC and don't grow at concentrations at and above the MIC.
(§3) The MIC values described in Table 1 below were derived from assays wherein each test compound was evaluated in duplicate. In cases where the duplicate values varied by 0-2-fold, the lower of the two values was reported below. Generally speaking, if the duplicate values varied by more than 2-fold, the assay was considered non-valid and was repeated until the variation between duplicate runs was ≦2-fold. In line with the CLSI guidelines referred to above, both control organisms and reference compounds were utilized in each MIC assay to provide proper quality control. MIC values generated with these control organisms and reference compounds were required to fall within a defined range for the assay to be considered valid and be included herein. Those skilled in the art will recognize that MIC values can and do vary from experiment to experiment. Generally speaking, it should be recognized that MIC values often vary +/−2-fold from experiment to experiment. While a single MIC is reported for each compound and each microorganism, the reader should not conclude that each compound was only tested once. Several of the compounds were subjected to multiple tests. The data reported in Table 1 is reflective of the compounds relative activity and different MICs may have been generated on these occasions in light with the guidelines described above.
(§4) The following bacterial strains were used in these MIC determinations:
1) Pseudomonas aeruginosa UC-12120: Wild-type, labeled as 1091-05;

[2] = system: Klebsiella pneumoniae 1000-02; experiment: minimum inhibitory concentration (MIC) testing according to CLSI guidelines, Klebsiella pneumoniae; conditions: ciprofloxacin-resistant, ESBL-expressing clinical isolate 1000-02, overnight incubation, lower of duplicate values; for MIC: Klebsiella pneumoniae, read-out: AB-MBT: Klebsiella pneumoniae 1000-02: MIC (MstRcnt)
Method: as §1, §2, §3, §4
2) Klebsiella pneumoniae: Ciprofloxacin-resistant isolate, expresses extended-spectrum beta-lactamases (ESBL), clinical isolate, labeled as 1000-02;

[3] = system: Acinetobacter baumannii/haemolyticus AB-3167; experiment: minimum inhibitory concentration (MIC) testing according to CLSI guidelines, Acinetobacter; conditions: multidrug-resistant clinical isolate AB-3167, overnight incubation, lower of duplicate values; for MIC: Acinetobacter baumannii, read-out: AB-MBT: Acinetobacter baumanii AB-3167: MIC (MstRcnt)
Method: as §1, §2, §3, §4
3) Acinetobacter baumannii/haemolyticus: Multidrug-resistant clinical isolate, labeled as AB-3167.

SMILES	AB-MBT: Pseudomonas aeruginosa 1091-05: MIC (MstRcn) [1] [µg/mL]	AB-MBT: Klebsiella pneumoniae 1000-02: MIC (MstRcnt) [2] [µg/mL]	AB-MBT: Acinetobacter baumanii AB-3167: MIC (MstRcnt) [3] [µg/mL]	MIC [1] [µg/mL]	MIC [2] [µg/mL]	MIC [3] [µg/mL]
CC(C)(O/N=C(\C(=O)N[C@@H]1C(=O)N(S(=O)(=O)[O-])[C@@H]1CNC(=O)c1coc(-c2cc(=O)c(O)cn2O)n1)c1csc(N)n1)C(=O)[O-].[Na+].[Na+] [Example 17, 2-({[(1Z)-1-(2-amino-1,3-thiazol-4-yl)-2-({(2R,3S)-2-[({[2-(1,5-dihydroxy-4-oxo-1,4-dihydropyridin-2-yl)-1,3-oxazol-4-yl]carbonyl}amino)methyl]-4-oxo-1-sulfoazetidin-3-yl}amino)-2-oxoethylidene]amino}oxy)-2-methylpropanoic acid, bis sodium salt]	0.125	1.00	1.00			
CC(C)(O/N=C(\C(=O)N[C@@H]1C(=O)N(S(=O)(=O)O)[C@@H]1CNC(=O)c1cc(-c2cc(=O)c(O)cn2O)on1)c1csc(N)n1)C(=O)O [Example 16, 2-({[(1Z)-1-(2-amino-1,3-thiazol-4-yl)-2-({(2R,3S)-2-[({[5-(1,5-dihydroxy-4-oxo-1,4-dihydropyridin-2-yl)isoxazol-3-yl]carbonyl}amino)methyl]-4-oxo-1-sulfoazetidin-3-yl}amino)-2-oxoethylidene]amino}oxy)-2-methylpropanoic acid]				0.25 (≈ 0.373 µM)	0.5 (≈ 0.746 µM)	1 (≈ 1.49 µM)
C[C@H](NC(=O)NCc1cc(=O)c(O)cn1O)C(=O)NC[C@@H]1[C@H](NC(=O)/C(=N\OC(C)(C)C(=O)O)c2csc(N)n2)C(=O)N1S(=O)(=O)O [Example 55, 2-({[(1Z)-1-(2-amino-1,3-thiazol-4-yl)-2-{[(2R,3S)-2-{[(N-{[(1,5-dihydroxy-4-oxo-1,4-dihydropyridin-2-yl)methyl]carbamoyl}-L-alanyl)amino]methyl}-4-oxo-1-sulfoazetidin-3-yl]amino}-2-oxoethylidene]amino}oxy)-2-methylpropanoic acid]				0.25 (≈ 0.355 µM)	2 (≈ 2.84 µM)	0.5 (≈ 0.711 µM)
Nc1nc(/C(=N/OC2(C(=O)O)CCCC2)C(=O)N[C@@H]2C(=O)N(S(=O)(=O)O)[C@@H]2CNC(=O)c2cc(=O)c(O)cn2O)cs1 [Example 66, 1-({[(1Z)-1-(2-amino-1,3-thiazol-4-yl)-2-{[(2R,3S)-2-({[(1,5-dihydroxy-4-oxo-1,4-dihydropyridin-2-yl)carbonyl]amino}methyl)-4-oxo-1-sulfoazetidin-3-yl]amino}-2-oxoethylidene]amino}oxy)cyclopentanecarboxylic acid]				0.5 (≈ 0.794 µM)	0.125 (≈ 0.199 µM)	0.5 (≈ 0.794 µM)
CC(C)(O/N=C(\C(=O)N[C@@H]1C(=O)N(S(=O)(=O)O)[C@@H]1Cn1cc(COCc2cc(=O)c(O)cn2O)nn1)c1csc(N)n1)C(=O)O [Example 1, 2-({[(1Z)-1-(2-amino-1,3-thiazol-4-yl)-2-({(2R,3S)-2-[(4-{[(1,5-dihydroxy-4-oxo-1,4-dihydropyridin-2-yl)methoxy]methyl}-1H-1,2,3-triazol-1-yl)methyl]-4-oxo-1-sulfoazetidin-3-yl}amino)-2-oxoethylidene]amino}oxy)-2-methylpropanoic acid]				0.25 (≈ 0.372 µM)	0.25 (≈ 0.372 µM)	0.5 (≈ 0.744 µM)
CC(C)(O/N=C(\C(=O)N[C@@H]1C(=O)N(S(=O)(=O)O)[C@@H]1CNC(=O)c1cccc(S(=O)(=O)NCc2cc(=O)c(O)cn2O)c1)c1csc(N)n1)C(=O)O [Example 40, 2-({[(1Z)-1-(2-amino-1,3-thiazol-4-yl)-2-{[(2R,3S)-2-({[3-({[(1,5-dihydroxy-4-oxo-1,4-dihydropyridin-2-yl)methyl]amino}sulfonyl)benzoyl]amino}methyl)-4-oxo-1-sulfoazetidin-3-yl]amino}-2-oxoethylidene]amino}oxy)-2-methylpropanoic acid]				0.25 (≈ 0.324 µM)	0.5 (≈ 0.647 µM)	0.25 (≈ 0.324 µM)
CC(C)(O/N=C(\C(=O)N[C@@H]1C(=O)N(S(=O)(=O)O)[C@@H]1CNC(=O)Cc1ccc(NC(=O)c2cc(=O)c(O)cn2O)cc1)c1csc(N)n1)C(=O)O [Example 45, 2-({[(1Z)-1-(2-amino-1,3-thiazol-4-yl)-2-{[(2R,3S)-2-({[(4-{[(1,5-dihydroxy-4-oxo-1,4-dihydropyridin-2-yl)carbonyl]amino}phenyl)acetyl]amino}methyl)-4-oxo-1-sulfoazetidin-3-yl]amino}-2-oxoethylidene]amino}oxy)-2-methylpropanoic acid]				0.5 (≈ 0.679 µM)	4 (≈ 5.43 µM)	0.5 (≈ 0.679 µM)
CC(C)(O/N=C(\C(=O)N[C@@H]1C(=O)N(S(=O)(=O)O)[C@@H]1Cn1cc(-c2cc(=O)c(O)cn2O)nn1)c1csc(N)n1)C(=O)O [Example 3, 2-({[(1Z)-1-(2-amino-1,3-thiazol-4-yl)-2-{[(2R,3S)-2-{[4-(1,5-dihydroxy-4-oxo-1,4-dihydropyridin-2-yl)-1H-1,2,3-triazol-1-yl]methyl}-4-oxo-1-sulfoazetidin-3-yl]amino}-2-oxoethylidene]amino}oxy)-2-methylpropanoic acid]				0.125 (≈ 0.199 µM)	0.25 (≈ 0.398 µM)	0.5 (≈ 0.797 µM)
Nc1nc(/C(=N/OCC(=O)O)C(=O)N[C@@H]2C(=O)N(S(=O)(=O)O)[C@@H]2CNC(=O)NCc2cc(=O)c(O)cn2O)cs1 [Example 69, ({[(1Z)-1-(2-amino-1,3-thiazol-4-yl)-2-({(2R,3S)-2-[({[(1,5-dihydroxy-4-oxo-1,4-dihydropyridin-2-yl)methyl]carbamoyl}amino)methyl]-4-oxo-1-sulfoazetidin-3-yl}amino)-2-oxoethylidene]amino}oxy)acetic acid]				0.25 (≈ 0.414 µM)	1 (≈ 1.65 µM)	0.25 (≈ 0.414 µM)
Nc1nc(/C(=N/OC2(C(=O)O)CCC2)C(=O)N[C@@H]2C(=O)N(S(=O)(=O)O)[C@@H]2CNC(=O)c2cc(=O)c(O)cn2O)cs1 [Example 58, 1-({[(1Z)-1-(2-amino-1,3-thiazol-4-yl)-2-{[(2R,3S)-2-({[(1,5-dihydroxy-4-oxo-1,4-dihydropyridin-2-yl)carbonyl]amino}methyl)-4-oxo-1-sulfoazetidin-3-yl]amino}-2-oxoethylidene]amino}oxy)cyclobutanecarboxylic acid]				0.25 (≈ 0.406 µM)	0.06 (≈ 0.0975 µM)	0.25 (≈ 0.406 µM)
Nc1nc(/C(=N/OC2(C(=O)O)CCC2)C(=O)N[C@@H]2C(=O)N(S(=O)(=O)O)[C@@H]2CNC(=O)c2ccc(CNC(=O)c3cc(O)c(O)cn3)cc2)cs1 [Example 61, 1-({[(1Z)-1-(2-amino-1,3-thiazol-4-yl)-2-{[(2R,3S)-2-({[4-({[(4,5-dihydroxypyridin-2-yl)carbonyl]amino}methyl)benzoyl]amino}methyl)-4-oxo-1-sulfoazetidin-3-yl]amino}-2-oxoethylidene]amino}oxy)cyclobutanecarboxylic acid]				32 (≈ 43.7 µM)	2 (≈ 2.73 µM)	1 (≈ 1.36 µM)
C[C@H](NC(=O)c1cc(=O)c(O)cn1O)C(=O)NC[C@@H]1[C@H](NC(=O)/C(=N\OC(C)(C)C(=O)O)c2csc(N)n2)C(=O)N1S(=O)(=O)O [Example 54, 2-({[(1Z)-1-(2-amino-1,3-thiazol-4-yl)-2-({(2R,3S)-2-[({N-[(1,5-dihydroxy-4-oxo-1,4-dihydropyridin-2-yl)carbonyl]-L-alanyl}amino)methyl]-4-oxo-1-sulfoazetidin-3-yl}amino)-2-oxoethylidene]amino}oxy)-2-methylpropanoic acid]				0.25 (≈ 0.371 µM)	1 (≈ 1.48 µM)	0.25 (≈ 0.371 µM)
